The source of these data is PMC9230136 (Pharmaceutics, 2022).

Each structure is given as a SMILES string. Where two headings read alike, the source gives them in different places. Where only a bound is given, the exact number is not on record here.

For one series, the system named is tubulin. Particulars: cited from earlier work.
The test system of series [1] is HeLa. Particulars: cited from earlier work.
The subject of series [2] is A549. Particulars: cited from earlier work.
Series [3] concerns Bovine brain tubulin. In words: Inhibition of [3H]colchicine binding to tubulin. Particulars: tubulin 0.5 µM, [3H]colchicine 5 µM, compound 5 µM. On the procedure:
(§1) Bovine brain tubulin was purified as described previously. To evaluate the effects of the compounds on tubulin assembly in vitro [35], varying concentrations were preincubated with 10 μM tubulin in 0.8 M monosodium glutamate (pH 6.6) at 30 °C and the reaction mixtures then cooled to 0 °C. After addition of GTP, the mixtures were transferred to 0 °C cuvettes in Beckman Coulter (Brea, CA, USA) DU-7400/DU-7500 recording spectrophotometers equipped with electronic temperature controllers and warmed to 30 °C, and the assembly of tubulin was observed turbidimetrically. […] Inhibition of colchicine binding to tubulin was measured as described before, except that the reaction mixtures contained 0.5 μM tubulin and 5 μM each of [^3H]colchicine and test compound. Only one DEAE-cellulose filter was used per sample, and filtration was by gravity.

Series [4] concerns HeLa. In words: Antiproliferative assay (resazurin, 72 h). It is filed as cell-based, human. The gist of the method: (§2)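 Resazurin read-out (3–4 h, fluorescence ex 535 nm/em 600 nm) after 72 h of compound exposure at 37 °C, 5% CO2. Media: RPMI-1640 for HT-29, DMEM for the other three lines, each plus 10% FBS. Top concentration 10 μM with fivefold steps, in triplicate.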
(In general: The colour change of resazurin is a common sign of viable cells or microbes.)

Another series deals with HT-29. In words: Antiproliferative assay (resazurin, 72 h). It is filed as cell-based, human. Particulars: mean ± SE, 72 h. The gist of the method:
as §2

A further series concerns MDA-MB-231. In words: Antiproliferative assay (resazurin, 72 h). Format: cell-based, human. Particulars: for IC50: mean ± SE, 72 h. The gist of the method: as §2
Series [5] has as its system A549. In words: Antiproliferative assay (resazurin, 72 h). It is filed as cell-based, human. The gist of the method:
as §2

In a further series the test system is Jurkat. In words: Antiproliferative assay (resazurin, 72 h). Particulars: mean ± SE, 72 h. Format: cell-based, human. The gist of the method:
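Jurkat T-cell leukemia cells, grown in RPMI-1640 containing 10% fetal bovine serum, 115 units/mL penicillin G and 115 μg/mL streptomycin, were plated in 96-well plates. After 24 h they received serial 5-fold dilutions of test compounds starting at 10 μM, in triplicate, and were kept 72 h at 37 °C in 5% CO2.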

Series [6] deals with Bovine brain tubulin. In words: Inhibition of tubulin polymerization. Particulars: for IC50: tubulin at 10 μM, read-out: Tubulin Assembly IC50 ± SD. Format: biochemical. On the procedure:
as §1

Series [7] concerns A549, MDA-MB-231, HeLa, HT-29 and Jurkat cancer cell lines. In words: Antiproliferative activity over the panel of cancer cell lines. It is filed as cell-based, human. How it is done: Colon adenocarcinoma (HT-29) and T-cell leukemia (Jurkat) cells were grown in RPMI-1640 medium (Gibco, Milano, Italy). Promyelocytic leukemia cells (HL-60), non-small cell lung carcinoma (A549), cervix carcinoma (HeLa) and breast adenocarcinoma (MDA-MB-231) cells were grown in DMEM medium (Gibco, Milano, Italy). Both media were supplemented with 115 units/mL of penicillin G (Gibco, Milano, Italy), 115 μg/mL of streptomycin (Invitrogen, Milano, Italy) and 10% fetal bovine serum (Invitrogen, Milano, Italy). All the cell lines used were purchased from the American Type Culture Collection (ATCC, Manassas, VA, USA). Stock solutions (10 mM) of the compounds were obtained by dissolving them in DMSO.
The cells were seeded in 96-well plates at the appropriate density for each cell line. After 24 h, the cells were treated by performing serial 5-fold dilutions of the tested compounds starting from a concentration of 10 μM. All experimental conditions were tested in triplicate for statistical analysis. The plates were incubated for 72 h at 37 °C in a humidified 5% CO2 atmosphere. At the end of the incubation period, 10 μL of 100 μg/mL resazurin solution was added to each well; then, the plate was re-incubated for 3–4 h. The fluorescence of the wells in each plate was monitored using a Spark 10 M spectrophotometer (Tecan Group Ltd., Mannedorf, Switzerland) with a 535 nm excitation wavelength and a 600 nm emission wavelength.

Setting [8] is: read-out: IC50 (compared with 8u on A549).
Setting [9] is: Homo sapiens, HeLa, Table 1, mean ± SE.
Setting [10] is: Homo sapiens, MDA-MB-231, Table 1.
[11] abbreviates: Homo sapiens, A549, Table 1, mean ± SE.
The mark [12] stands for this setting: Homo sapiens, all five lines, read-out: IC50 values against all five lines.
[13] abbreviates: Homo sapiens, range over the five tumor lines, read-out: IC50 values, range over the cell lines.
Setting [14] is: mean over the five cancer cell lines, read-out: mean IC50 (antiproliferative activity).

One may read the IC50 as the concentration at which inhibition is half-maximal. In the case of `COc1ccc(-c2c(C(C)=O)c(C)nc3nc(-c4cc(OC)c(OC)c(OC)c4)nn23)cc1[N+](=O)[O-]` [Compound 5], the IC50 in the series with tubulin (read-out: IC50 antitubulin activity) is 9900 nM; in the series with HeLa [1] it was 10000 nM; in the series on A549 [2] (read-out: IC50 A549), 16000 nM.
Regarding `COc1cccc2c1C(=O)c1c(O)c3c(c(O)c1C2=O)C[C@@](O)(C(=O)CO)C[C@@H]3O[C@H]1C[C@H](N)[C@H](O)[C@H](C)O1` [doxorubicin], the IC50 in the series on A549 [2] (setting [8]) was 11600 nM.
Take `CC(=O)O[C@H]1C(=O)[C@@]2(C)[C@H]([C@H](OC(=O)c3ccccc3)[C@]3(O)C[C@H](OC(=O)[C@H](O)[C@@H](NC(=O)c4ccccc4)c4ccccc4)C(C)=C1C3(C)C)[C@]1(OC(C)=O)CO[C@@H]1C[C@@H]2O` [paclitaxel]: in the series on A549 [2] (setting [8]), the concentration for half-maximal inhibition (IC50) is 3.5 nM.
Consider `COc1ccc(-c2nc3nc(C)c(C(C)=O)c(-c4cc(OC)c(OC)c(OC)c4)n3n2)cc1O` [Compound 6], for which, in the series on tubulin, the “fold more powerful than CA-4, tubulin polymerization” value is 3 fold. Besides, in the series with HeLa [1], the IC50 is 60 nM.
`COc1cc(-c2nc3nc(C)c(C(C)=O)c(-c4ccc([N+](=O)[O-])cc4)n3n2)cc(OC)c1OC` [Compound 4]: in the series with tubulin (at 10 μM), the “inhibition of tubulin assembly” value is recorded as 40%. For the same compound, the IC50 was 750 nM with HeLa [1] and 1020 nM in the series on A549 [2] (read-out: IC50 A549).
As a reminder, the melting point is the temperature, or range, at which the solid turns liquid. With `COc1cc(Nc2cc(C)nc3nc(NCc4ccc5c(c4)OCO5)nn23)cc(OC)c1OC` [Compound 7y, N^2-(Benzo[d][1,3]dioxol-5-ylmethyl)-5-methyl-N^7-(3,4,5-trimethoxyphenyl)-[1,2,4]triazolo [1,5-a]pyrimidine-2,7-diamine], the melting point lay in the range of 190 to 192 °C. In addition, the “Colchicine Binding % Inhibition ± SD” value in the series with Bovine brain tubulin [3] amounted to 19 ± 05%. Moreover, the IC50 with HeLa [4] (setting [9]) worked out at 110 ± 10 nM. The compound further returned an IC50 in the series with HT-29 (Homo sapiens, HT-29, Table 1) of 170 ± 20 nM. The compound further came in with an IC50 in the series on MDA-MB-231 (setting [10]) of 300 ± 20 nM. This compound also returned an IC50 in the series with A549 [5] (setting [11]) of 660 ± 30 nM. In the series on Jurkat (Homo sapiens, Jurkat, Table 1), this compound yielded an IC50 of 780 ± 90 nM. Besides, in the series on Bovine brain tubulin [6], the “fold less active than CA-4, tubulin polymerization” value was 1.5 fold and the 50% inhibitory concentration (IC50) was found to be 1000 ± 200 nM. In [7] (setting [12]), the IC50 was under 1000 nM. In addition, the IC50 in series [7] (setting [13]) was in the range of 110 to 780 nM. In addition, in series [7] (all five cell lines), the “fold increase in activity vs 7i” value was 6–28 fold.
For the compound `CC(=O)O[C@@]12CO[C@@H]1C[C@H](O)[C@@]1(C)C(=O)[C@H](O)C3=C(C)[C@@H](OC(=O)[C@H](O)[C@@H](NC(=O)OC(C)(C)C)c4ccccc4)C[C@@](O)([C@@H](OC(=O)c4ccccc4)[C@H]21)C3(C)C` [docetaxel], the IC50 in the series with A549 [2] (setting [8]) was 19.5 nM.
As to `COc1cc(Nc2cc(C)nc3nc(NCc4ccc(Cl)cc4)nn23)cc(OC)c1OC` [Compound 7n, N^2-(4-Chlorobenzyl)-5-methyl-N^7-(3,4,5-trimethoxyphenyl)-[1,2,4]triazolo [1,5-a]pyrimidine-2,7-diamine], the melting point lay within 140 to 142 °C. In the series on Bovine brain tubulin [3], the “Colchicine Binding % Inhibition ± SD” value is listed as 30 ± 0.3%. The same compound showed a concentration for half-maximal inhibition (IC50) with HeLa [4] (setting [9]) of 31 ± 10 nM. Also, the IC50 in the series on HT-29 (Homo sapiens, HT-29, Table 1) was found to be 54 ± 10 nM. Moreover, inhibition with MDA-MB-231 (setting [10]) was half-maximal at 190 ± 20 nM (IC50). Also, the “fold reduction in activity vs 7l” value in the series with MDA-MB-231 (MDA-MB-231 cells) worked out at 3 fold. In the series on A549 [5] (setting [11]), the IC50 was found to be 110 ± 22 nM. In addition, half-maximal inhibition in the series on Jurkat (Homo sapiens, Jurkat, Table 1) (IC50) was put at 320 ± 19 nM. Besides, the half-inhibitory concentration (IC50) in the series with Bovine brain tubulin [6] came to 390 ± 60 nM. Further, the IC50 in series [7] (setting [12]) is under 1000 nM. Moreover, the IC50 in [7] (setting [13]) lay within 31 to 323 nM. In addition, the “fold increase in antiproliferative activity vs 7l” value in [7] (four of the five cell lines) is given as 17–60 fold.
`Cc1cc(Nc2ccc(Br)cc2)n2nc(NCCCc3ccccc3)nc2n1` [Compound 8u]: in the series on Bovine brain tubulin [3], the “Colchicine Binding % Inhibition ± SD” value is recorded as 84 ± 2%. Moreover, the IC50 stood at 22 ± 10 nM in the series on HeLa [4] (Table 2, mean ± SE); 83 ± 20 nM in the series with HT-29 (Table 2); 120 ± 40 nM with MDA-MB-231 (Table 2); 48 ± 10 nM in the series on A549 [5] (Table 2, mean ± SE); 150 ± 14 nM in the series on Jurkat (Table 2); 380 ± 20 nM with Bovine brain tubulin [6]. Moreover, in [7] (setting [14]), the IC50 was found to be 83 nM. Also, the “fold more potent than CA-4, tubulin polymerization” value with Bovine brain tubulin [6] was “about 2 fold”.
On to `Cc1cc(Nc2ccc(Cl)cc2)n2nc(NCCCc3ccccc3)nc2n1` [Compound 8s], for which the “Colchicine Binding % Inhibition ± SD” value in the series with Bovine brain tubulin [3] is on record as 88 ± 3%. Also, the IC50 with HeLa [4] (Table 2, mean ± SE) turned out to be 48 ± 1 nM; in the series on HT-29 (Table 2) it was 53 ± 1 nM; in the series with MDA-MB-231 (Table 2) it was 200 ± 70 nM; with A549 [5] (Table 2, mean ± SE), 70 ± 10 nM; in the series on Jurkat (Table 2) it was 83 ± 20 nM; with Bovine brain tubulin [6] it was 390 ± 10 nM. In series [7] (setting [14]), the IC50 was determined as 91 nM. Moreover, the “fold more potent than CA-4, tubulin polymerization” value in the series with Bovine brain tubulin [6] is on record as “about 2 fold”.
Turning to `COc1cc(Nc2cc(C)nc3nc(NCc4ccc(C)cc4)nn23)cc(OC)c1OC` [Compound 7p, 5-Methyl-N2-(4-methylbenzyl)-N7-(3,4,5-trimethoxyphenyl)-[1,2,4]triazolo [1,5-a]pyrimidine-2,7-diamine], the melting point was in the range of 146 to 148 °C. Besides, the “Colchicine Binding % Inhibition ± SD” value with Bovine brain tubulin [3] is given as 27 ± 3%. Moreover, in the series on HeLa [4] (setting [9]), 60 ± 10 nM corresponded to half-maximal inhibition (IC50). Besides, in the series with HT-29 (Homo sapiens, HT-29, Table 1), inhibition was half-maximal at 110 ± 20 nM (IC50). The compound also showed an IC50 in the series with MDA-MB-231 (setting [10]) of 301 ± 40 nM. The same compound yielded an IC50 in the series on A549 [5] (setting [11]) of 420 ± 70 nM. This compound also registered a half-inhibitory concentration (IC50) with Jurkat (Homo sapiens, Jurkat, Table 1) of 430 ± 1 nM. The IC50 in the series on Bovine brain tubulin [6] stood at 660 ± 100 nM. In series [7] (setting [12]), the IC50 is under 1000 nM. In addition, in [7] (setting [13]), the half-inhibitory concentration (IC50) lay in the range of 60 to 427 nM. In addition, the “fold more potent than 7g” value in series [7] (all cancer cell lines) was 2–9 fold. In addition, the “fold less active than 7n” value in [7] (cell lines other than Jurkat) is on record as 2–4 fold. The IC50 in [7] (range over the five tumor lines, read-out: IC50 values, range over the cell lines) was in the range of 60 to 420 nM.
In the case of `CO[C@H]1C(=O)[C@]2(C)[C@@H](OC)C[C@H]3OC[C@@]3(OC(C)=O)[C@H]2[C@H](OC(=O)c2ccccc2)[C@]2(O)C[C@H](OC(=O)[C@H](O)[C@@H](NC(=O)OC(C)(C)C)c3ccccc3)C(C)=C1C2(C)C` [cabazitaxel], the half-maximal inhibitory concentration (IC50) in the series with A549 [2] (setting [8]) is 15 nM.
